Experimental data: the NIST ThermoML archive (doi:10.1021/je5009334)

Experiment: xn = mol fraction of the nth substance listed
Conditions: 101 kPa, Liquid; for speed of sound: Sing-around technique in a fixed-path interferometer; for mass density: Vibrating tube method

CCC(O)CO (stereo not given) [1,2-butanediol] + CCC(C)O
Conditions	mass density [kg/m3]	speed of sound [m/s]
298.15 K, x1 = 0.1	821.98	1231
298.15 K, x1 = 0.2	841.211	1250.6
298.15 K, x1 = 0.3	860.512	1270.9
298.15 K, x1 = 0.4	879.912	1292.2
298.15 K, x1 = 0.5	899.493	1315.5
298.15 K, x1 = 0.6	919.721	1340.2
298.15 K, x1 = 0.7	939.207	1365.7
298.15 K, x1 = 0.8	959.168	1393.3
298.15 K, x1 = 0.9	978.763	1423.1
298.15 K, x1 = 1	998.509	1452.6
303.15 K, x1 = 0.1	817.802	1213.1
303.15 K, x1 = 0.2	837.068	1233.5
303.15 K, x1 = 0.3	856.416	1253.8
303.15 K, x1 = 0.4	875.848	1275.5
303.15 K, x1 = 0.5	895.477	1299.1
303.15 K, x1 = 0.6	915.764	1324.6
303.15 K, x1 = 0.7	935.294	1350
303.15 K, x1 = 0.8	955.308	1378.1
303.15 K, x1 = 0.9	974.958	1408.3
303.15 K, x1 = 1	994.759	1438.2
308.15 K, x1 = 0.1	813.551	1195.3
308.15 K, x1 = 0.2	832.862	1216
308.15 K, x1 = 0.3	852.256	1236.8
308.15 K, x1 = 0.4	871.737	1258.8
308.15 K, x1 = 0.5	891.419	1282.9
308.15 K, x1 = 0.6	911.761	1308.7
308.15 K, x1 = 0.7	931.345	1334.5
308.15 K, x1 = 0.8	951.414	1362.8
308.15 K, x1 = 0.9	971.12	1393.4
308.15 K, x1 = 1	990.971	1423.6
313.15 K, x1 = 0.1	809.205	1177.3
313.15 K, x1 = 0.2	828.579	1198.2
313.15 K, x1 = 0.3	848.033	1219.7
313.15 K, x1 = 0.4	867.576	1242.2
313.15 K, x1 = 0.5	887.316	1266.7
313.15 K, x1 = 0.6	907.718	1292.9
313.15 K, x1 = 0.7	927.356	1319
313.15 K, x1 = 0.8	947.483	1347.7
313.15 K, x1 = 0.9	967.241	1378.5
313.15 K, x1 = 1	987.152	1409.1
318.15 K, x1 = 0.1	804.796	1159.3
318.15 K, x1 = 0.2	824.244	1180.7
318.15 K, x1 = 0.3	843.762	1202.6
318.15 K, x1 = 0.4	863.365	1225.5
318.15 K, x1 = 0.5	883.169	1250.5
318.15 K, x1 = 0.6	903.63	1277
318.15 K, x1 = 0.7	923.329	1303.5
318.15 K, x1 = 0.8	943.516	1332.5
318.15 K, x1 = 0.9	963.332	1363.6
318.15 K, x1 = 1	983.297	1394.5
323.15 K, x1 = 0.1	800.305	1141.5
323.15 K, x1 = 0.2	819.834	1163.1
323.15 K, x1 = 0.3	839.427	1185.5
323.15 K, x1 = 0.4	859.1	1208.9
323.15 K, x1 = 0.5	878.969	1234.3
323.15 K, x1 = 0.6	899.488	1260.8
323.15 K, x1 = 0.7	919.266	1288.4
323.15 K, x1 = 0.8	939.516	1317.6
323.15 K, x1 = 0.9	959.384	1348.7
323.15 K, x1 = 1	979.406	1379.9
